Source: ChEMBL document CHEMBL5370605, “Discovery of Novel Fedratinib-Based HDAC/JAK/BRD4 Triple Inhibitors with Remarkable Antitumor Activity against Triple Negative Breast Cancer” (J Med Chem, 2023)

Experiments:
[1] = molecular target: Histone deacetylase 1 (Homo sapiens, UniProt Q13547); test: Inhibition of HDAC1 (unknown origin) using Boc-Lys(Ac)-AMC as substrate incubated for 30 mins by fluorescence based analysis
[2] = in vitro; conditions: human, GES1 cells
[3] = Selectivity index, ratio of IC50 for human GES-1 cells to IC50 for human MDA-MB-231 cells
[4] = molecular target: Bromodomain-containing protein 4 (Homo sapiens, UniProt O60885); test: Inhibition of recombinant BRD4 BD1 (unknown origin) using H4KAc as substrate incubated for 30 mins by HTRF analysis
[5] = molecular target: Tyrosine-protein kinase JAK1 (Homo sapiens, UniProt P23458); test: Inhibition of JAK1 (unknown origin) incubated for 40 mins in presence of ATP by Kinase-glo luminescent assay
[6] = tested on: MDA-MB-231; test: cells; conditions: Homo sapiens, MDA-MB-231, 48 h
[7] = tested on: MDA-MB-231; test: Antitumor activity against human MDA-MB-231 cells xenografted in athymic BALB/c nude mouse assessed as the tumor growth inhibition at 25 mg/kg/day, ip administered for 28 days and measured every 3 days by vernier caliper analysis relative to control; assay type: functional; conditions: MDA-MB-231, 672 h, time 28 day, read-out: TGI
[8] = AUC (0 to t) in ICR (CD-1) mouse at 10 mg/kg, iv measured for 24 hrs by LC-MS/MS analysis; assay type: ADME, organism-based; parameters: dose 10 mg/kg, time 24 hrs, route iv; conditions: in vivo
[9] = Cmax in ICR (CD-1) mouse at 10 mg/kg, iv measured for 24 hrs by LC-MS/MS analysis; assay type: ADME, organism-based; parameters: time 24 hrs, dose 10 mg/kg, route iv; conditions: in vivo
[10] = MRT (0 to t) in ICR (CD-1) mouse at 50 mg/kg, ip measured for 24 hrs by LC-MS/MS analysis; assay type: ADME, organism-based; conditions: in vivo
[11] = In vivo inhibition of BRD4 in athymic BALB/c nude mouse xenografted with human MDA-MB-231 cells assessed as fold change in c-Myc level in tumor at 25 mg/kg, ip administered for 28 consecutive days by Western blot analysis (reference value: 1); assay type: functional; conditions: time 28 day
[12] = Half life in ICR (CD-1) mouse at 50 mg/kg, ip measured for 24 hrs by LC-MS/MS analysis; assay type: ADME, organism-based; conditions: in vivo
[13] = MRT (0 to t) in ICR (CD-1) mouse at 10 mg/kg, iv measured for 24 hrs by LC-MS/MS analysis; assay type: ADME, organism-based; conditions: in vivo
[14] = Toxicity in athymic BALB/c nude mouse xenografted with human MDA-MB-231 cells assessed as reduction in body weight at 25 mg/kg/day, ip administered for 28 consecutive days; assay type: organism-based; conditions: in vivo, 672 h, time 28 day
[15] = Half life in ICR (CD-1) mouse at 10 mg/kg, iv measured for 24 hrs by LC-MS/MS analysis; assay type: ADME, organism-based; conditions: in vivo
[16] = tested on: MDA-MB-231; test: Antiproliferative activity against human MDA-MB-231 cells assessed as inhibition of cell growth incubated for 48 hrs in presence of SAHA by MTT assay; assay type: functional, cell-based; conditions: MDA-MB-231, 48 h
[17] = Volume of distribution at steady state in ICR (CD-1) mouse at 10 mg/kg, iv measured for 24 hrs by LC-MS/MS analysis; assay type: ADME, organism-based; conditions: in vivo
[18] = AUC (0 to t) in ICR (CD-1) mouse at 50 mg/kg, ip measured for 24 hrs by LC-MS/MS analysis; assay type: ADME, organism-based; parameters: dose 50 mg/kg, time 24 hrs, route ip; conditions: in vivo
[19] = Metabolic stability in mouse liver microsomes assessed as half life in presence of NADPH by LC-MS/MS analysis; assay type: ADME, Microsome
[20] = Cytotoxicity against human GES1 cells assessed as inhibition of cell growth incubated for 48 hrs in presence of SAHA by MTT assay; assay type: toxicity, cell-based
[21] = Metabolic stability in mouse liver microsomes assessed as intrinsic clearance in presence of NADPH by LC-MS/MS analysis; assay type: ADME, Microsome; conditions: read-out: CLH
[22] = In vivo inhibition of JAK1 in athymic BALB/c nude mouse xenografted with human MDA-MB-231 cells assessed as fold change in STAT3 level in tumor at 25 mg/kg, ip administered for 28 consecutive days by Western blot analysis (reference value: 1); assay type: functional; conditions: time 28 day
[23] = In vivo inhibition of JAK1 in athymic BALB/c nude mouse xenografted with human MDA-MB-231 cells assessed as fold change in phosphorylated STAT3 level at Tyr705 residue in tumor at 25 mg/kg, ip administered for 28 consecutive days by Western blot analysis (reference value: 1); assay type: functional; conditions: time 28 day
[24] = tested on: GES1; test: Cytotoxicity against human GES1 cells at 1 uM incubated for 48 hrs by MTT assay; assay type: toxicity, cell-based; conditions: ges1, 48 h
[25] = In vivo inhibition of HDAC1 in athymic BALB/c nude mouse xenografted with human MDA-MB-231 cells assessed as fold change in acetyl-histone H3 level in tumor at 25 mg/kg, ip administered for 28 consecutive days by Western blot analysis (reference value: 1); assay type: functional; conditions: time 28 day
[26] = Tmax in ICR (CD-1) mouse at 50 mg/kg, ip measured for 24 hrs by LC-MS/MS analysis; assay type: ADME, organism-based; conditions: in vivo
[27] = Cmax in ICR (CD-1) mouse at 50 mg/kg, ip measured for 24 hrs by LC-MS/MS analysis; assay type: ADME, organism-based; parameters: time 24 hrs, dose 50 mg/kg, route ip; conditions: in vivo
[28] = Toxicity in athymic BALB/c nude mouse xenografted with human MDA-MB-231 cells assessed as reduction in body weight at 50 mg/kg/day, ip administered for 2 days; assay type: organism-based; conditions: in vivo, 48 h, time 2 day
[29] = Bioavailability in ICR (CD-1) mouse at 50 mg/kg, ip measured for 24 hrs by LC-MS/MS analysis; assay type: ADME, organism-based; conditions: ICR (CD-1), in vivo

Chain of Histone deacetylase 1 (Q13547 whole entry): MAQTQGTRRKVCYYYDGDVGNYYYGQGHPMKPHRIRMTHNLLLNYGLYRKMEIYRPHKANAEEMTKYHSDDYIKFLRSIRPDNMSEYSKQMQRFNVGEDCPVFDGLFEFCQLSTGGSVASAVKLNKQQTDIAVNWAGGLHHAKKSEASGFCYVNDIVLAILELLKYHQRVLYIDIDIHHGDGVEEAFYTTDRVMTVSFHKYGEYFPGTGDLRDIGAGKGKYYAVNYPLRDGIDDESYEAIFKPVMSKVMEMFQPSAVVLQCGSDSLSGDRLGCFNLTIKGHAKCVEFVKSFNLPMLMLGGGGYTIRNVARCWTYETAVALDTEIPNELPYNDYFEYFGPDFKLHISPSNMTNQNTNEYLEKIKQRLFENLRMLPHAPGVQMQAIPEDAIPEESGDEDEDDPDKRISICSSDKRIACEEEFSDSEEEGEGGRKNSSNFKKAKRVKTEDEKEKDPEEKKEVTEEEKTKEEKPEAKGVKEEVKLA
Chain of Tyrosine-protein kinase JAK1 (P23458 whole entry): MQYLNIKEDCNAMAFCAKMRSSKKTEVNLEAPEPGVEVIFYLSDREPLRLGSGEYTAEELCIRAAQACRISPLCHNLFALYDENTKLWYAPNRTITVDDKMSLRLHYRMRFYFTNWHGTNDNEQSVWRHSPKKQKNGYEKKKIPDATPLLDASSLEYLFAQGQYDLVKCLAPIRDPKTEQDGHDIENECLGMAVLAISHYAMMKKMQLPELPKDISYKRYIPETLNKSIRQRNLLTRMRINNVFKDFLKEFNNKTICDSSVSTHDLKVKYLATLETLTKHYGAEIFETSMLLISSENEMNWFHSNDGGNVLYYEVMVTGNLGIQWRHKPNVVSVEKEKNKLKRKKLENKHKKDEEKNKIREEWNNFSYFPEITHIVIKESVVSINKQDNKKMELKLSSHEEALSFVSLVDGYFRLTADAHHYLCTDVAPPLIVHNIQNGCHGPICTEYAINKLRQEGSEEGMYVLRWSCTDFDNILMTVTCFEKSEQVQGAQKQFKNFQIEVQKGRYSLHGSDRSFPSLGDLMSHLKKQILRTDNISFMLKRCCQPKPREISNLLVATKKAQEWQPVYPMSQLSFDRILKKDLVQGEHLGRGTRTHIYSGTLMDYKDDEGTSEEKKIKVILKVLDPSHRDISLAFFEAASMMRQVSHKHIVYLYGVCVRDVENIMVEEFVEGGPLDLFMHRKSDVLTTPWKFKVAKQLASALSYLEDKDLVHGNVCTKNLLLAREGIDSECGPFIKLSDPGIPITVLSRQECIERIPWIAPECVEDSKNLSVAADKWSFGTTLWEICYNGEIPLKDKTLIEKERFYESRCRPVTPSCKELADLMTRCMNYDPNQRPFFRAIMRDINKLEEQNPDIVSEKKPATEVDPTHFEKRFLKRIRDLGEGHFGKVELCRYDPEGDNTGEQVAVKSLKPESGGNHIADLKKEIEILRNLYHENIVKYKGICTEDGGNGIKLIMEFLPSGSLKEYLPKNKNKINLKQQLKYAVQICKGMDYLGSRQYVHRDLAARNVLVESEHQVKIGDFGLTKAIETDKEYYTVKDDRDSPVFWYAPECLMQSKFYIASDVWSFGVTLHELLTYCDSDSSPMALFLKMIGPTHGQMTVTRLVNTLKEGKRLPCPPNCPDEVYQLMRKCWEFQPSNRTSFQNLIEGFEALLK

Row | SMILES | IC50 [1] [nM] | IC50 at 48 h [2] [µM] | IC50 [4] [nM] | IC50 [5] [nM] | IC50 [6] [nM] | AUCt [8] [ng·h/mL] | Cmax [9] [ng/mL] | MRT last at 24 h [10] [h] | half-life [12] [min] | MRT(t) [13] [h] | t1/2 [15] [h] | Vdss [17] [L/kg] | AUC(0-t) at 24 h [18] [ng·h/mL] | Tmax [26] [min] | Cmax [27] [ng/mL] | bioavailability [29] [%] | selectivity ratio [3] | further results
1 | CCCN(N)C(=O)c1ccc(Nc2nc(Nc3ccc(N4CCN(C)CC4)c(F)c3)ncc2C)cc1 | > 5000 | 11.5 | 2360 | 10.4 | 4500 |  |  |  |  |  |  |  |  |  |  |  | 2.5 | 
2 | Cc1cnc(Nc2ccc(/C=C/C(=O)NO)cc2)nc1Nc1ccc(Cl)c(NS(=O)(=O)C(C)(C)C)c1 | 380 | 28.6 | 1290 | 14.6 | 3400 |  |  |  |  |  |  |  |  |  |  |  | 7.1 | 
3 | O=C(CCCCCCC(=O)Nc1ccccc1)NO [VORINOSTAT] |  |  |  |  |  | 783 | 6640 | 0.67 | 81 | 0.12 | 0.29 | 1.59 | 2550 | 4.8 | 3930 | 65 |  | 

Further molecules by falling IC50 [6], results first:

Row | IC50 [1] [nM] | IC50 at 48 h [2] [µM] | IC50 [4] [nM] | IC50 [5] [nM] | IC50 [6] [nM] | AUCt [8] [ng·h/mL] | Cmax [9] [ng/mL] | MRT last at 24 h [10] [h] | half-life [12] [min] | MRT(t) [13] [h] | t1/2 [15] [h] | Vdss [17] [L/kg] | AUC(0-t) at 24 h [18] [ng·h/mL] | Tmax [26] [min] | Cmax [27] [ng/mL] | bioavailability [29] [%] | SMILES | selectivity ratio [3] | further results
4 | > 5000 | 9.7 | 1810 | 5.9 | 2200 |  |  |  |  |  |  |  |  |  |  |  | Cc1cnc(Nc2ccc(N3CCN(C)CC3)c(F)c2)nc1Nc1ccc(C(=O)Nc2ccccc2N)cc1 | 4.4 | 
5 |  | 0.89 |  |  | 1400 | 2825 | 4430 | 2.33 | 173 | 1.89 | 5.45 | 8.74 | 14500 | 4.8 | 9750 | 102 | Cc1cnc(Nc2ccc(OCCN3CCCC3)cc2)nc1Nc1cccc(S(=O)(=O)NC(C)(C)C)c1 [FEDRATINIB] |  | inhibition in vivo at 25 mg/kg/day [7]: 32%; fold change (FC) [11]: 1.1; Activity [14]: Non-Toxic; IC50 [16]: 460 nM; half-life [19]: 5.6 min; IC50 at 48 h [20]: 610 nM; CLint scaled [21]: 976 mL/min/kg; fold change (FC) [22]: 1.3; fold change (FC) [23]: 0.5; Activity [24]: Toxic; fold change (FC) [25]: 0.8; Activity [28]: Toxic
